In article PMC6906261 (The journal of pain : official journal of the American Pain …, 2019):
Structures can show the parent of a compound that is named as a salt.

Experiments:
CD-1 mice [1] = conditions: mouse, in vivo
CD-1 mice [2] = conditions: mouse, in vivo; remark: listed apart in the source
TNFα mRNA = conditions: mouse, in vivo
CD-1 mice [3] = conditions: mouse, in vivo; remark: listed apart in the source
CD-1 mice [4] = conditions: mouse, in vivo; remark: listed apart in the source
CD-1 mice [5] = conditions: general literature value; cited from earlier work
CD-1 mice [6] = conditions: mouse, in vivo; remark: listed apart in the source

CN1CC[C@]23c4c5ccc(O)c4O[C@H]2[C@@H](O)C=C[C@H]3[C@H]1C5 [Morphine, Morphine sulfate pentahydrate]
Anti-nociceptive efficacy on day 3, HIV Neuropathy (CD-1 mice [1]): zero efficacy | Tolerance – Days to Zero Efficacy, HIV Neuropathy, 10 mg/kg (CD-1 mice [1]): 3.0 (2.7-3.6) days | Tolerance – Days to Zero Efficacy, CIPN, 10 mg/kg (CD-1 mice [2]): 2.2 (1.9-3.3) days | TNFα mRNA level in spinal cord in CIPN (TNFα mRNA): did not alter | Rotarod motor impairment (latency to fall) (CD-1 mice [3]): no impairment | Withdrawal GI output, CIPN mice (CD-1 mice [4]): robust jumping and GI output response | Withdrawal GI output, pain-naïve mice (CD-1 mice [4]): robust jumping and GI output behavior | Withdrawal jumping behavior, CIPN mice (CD-1 mice [4]): robust jumping and GI output response | Withdrawal jumping behavior, pain-naïve mice (CD-1 mice [4]): robust jumping and GI output behavior | Tail flick A50 from the literature (CD-1 mice [5]): around 3.2 mg/kg

C=CCN1CC[C@]23c4c5ccc(O)c4O[C@H]2C(=O)CC[C@@]3(O)[C@H]1C5 [Naloxone]
Decrease of tail flick AUC vs vehicle group, naloxone it (CD-1 mice [6]): 4.6% | Effect of antagonist on SRI-22141 tail flick anti-nociception, naloxone icv (CD-1 mice [6]): strongly reduced | Effect of antagonist on SRI-22141 tail flick anti-nociception, naloxone ip (CD-1 mice [6]): completely prevented

Oc1ccc2c3c1O[C@H]1c4[nH]c5ccccc5c4C[C@@]4(O)[C@@H](C2)N(CC2CC2)CC[C@]314 [Naltrindole]
Effect of antagonist on SRI-22141 tail flick anti-nociception, naltrindole ip (CD-1 mice [6]): no impact | Effect of antagonist on SRI-22141 anti-nociception in CIPN (CD-1 mice [2]): strongly reduced | Effect of antagonist on TNFα mRNA decrease caused by SRI-22141 (TNFα mRNA): reversed the decrease in TNFα caused by SRI-22141 back to baseline
